Patent US20210340629A1, “BIOMARKERS FOR CANCER THERAPY” (The Council of the Queensland Institute of Medical Research, priority 2018, published 2021)

Test system: C092 cell line
Assay: Cell viability of C092 with LC3B knock down following G9a inhibitor treatment
Type: cell-based, human
Conditions: data not shown
From the text: Therefore, the basal levels of important autophagy related proteins were examined in the melanoma cell lines used in this study. It is has been shown that the inhibition of G9a can cause an induction of the autophagy-related gene 5 (ATG5), Beclin-1 (known also as ATG6) and the conversion of microtubule-associated protein 1 light chain 3 beta (MAP1LC3B or LC3B for short) I (17 KDa) to LCB3 II (15 KDa) through proteolytic cleavage and lipidation (de Narvajas et al. (2013) and Li et a. (2015). These changes are considered a hallmark of mammalian autophagy. When cells undergo autophagy, conversion of a fraction of cytoplasmic LC3B Ito autophagic membrane form LC3B II can be detected by western blot or by immunofluorescence. This conversion correlates with autophagic activity (Kabeya et al (2000) Embo J 19, 5720-5728), therefore the levels of LC3B II can be considered a reliable marker of autophagy. […] To assess whether lowering LC3B levels in the C092 non-responsive cell line would allow increased sensitivity to the G9a inhibitor treatment, cell viability of C092 following G9a inhibitor treatment was assessed.

SMILES: COc1cc2c(NC3CCN(C(C)C)CC3)nc(N3CCC(F)(F)CC3)nc2cc1OCCCN1CCCC1 [UNC0642]
- cell viability following G9a inhibitor treatment: significantly reduced
